From patent publication US12715851B2, “4′-substituted analogues of fisetin and their use in the treatment of cancer” (Stellenbosch University, priority 2020, dated 2026)
pIC50: −log10 of the molar value. Entries after “also recorded” stand apart in the source; their conditions may differ.

Columns and labels:
[1] = test system: A549 lung cancer cell line; assay: MTT cell proliferation assay, cytotoxicity after 48 h treatment; assay type: cell-based, human
Method: These 4′-substituted Fisetin analogues were initially screened for cytotoxicity against the A549 lung cancer cell line following a 48 h treatment period. Cytotoxicity IC50's were quantified using the MTT cell proliferation assay. The compounds were not found to interfere with the assay by causing an increase in background absorbance, no correlation was found between the lipophilicity and cytotoxicity at this position, and the substituent size was also not found to be important.

A549 cells [2] = assay: Trypan blue cell exclusion assay, cell proliferation and death; assay type: cell-based; details: Homo sapiens, A549, 48 h, read-out: IC50 concentration
Method: (§1) To evaluate the effect of Fisetin analogues 3a, 3c and 3e on cell proliferation and death of human lung cancer cells, trypan blue cell exclusion assays were performed. A549 and H1299 cancer cells were treated with different concentrations of three selected Fisetin analogues for 48 h. The Fisetin analogues decreased the viability of cells and caused cell death in both the cell lines in a concentration dependent fashion. A549 and H1299 cells were treated with 5, 10 and 20 μM of Fisetin analogues for 48 h. All three analogues decreased cell proliferation and induced cell death.

H1299 lung cancer cells = assay: as above; assay type: cell-based; details: Homo sapiens, NCI-H1299, H1299, 48 h, read-out: IC50 concentration
Method: as §1

A549 cells [3] = assay: Western blot of signalling, cell cycle and apoptosis markers; assay type: cell-based, human; details: IC50 concentration and 20 μM
Description: Similarly, in H1299 cells analogue 3a induced a 11.7 to 14.9% cell death (FIG. 4D right) compared to 3.8% in control cells. Analogue 3c (FIG. 4E right) and analogue 3e (FIG. 4F right) induced cell death of 8.2 to 15.1% and 8.8 to 16.6% respectively. For western blot experiments, two concentrations were used, i.e. the IC50 concentration and the next higher concentration utilized for cell proliferation for each cell line.
The expression of pro-oncogenic signalling molecules, which are involved in proliferation and survival of cancer cells, were evaluated.
The effect of the Fisetin analogues on molecular markers of apoptosis was assessed.

A549 = assay: Apoptosis assay; assay type: cell-based, human; details: 48 h, control cells 4.7%
Description: (§2) In A549, analogue 3a induced 8.2 and 11.2% apoptosis, analogue 3c induced 13.4 and 17.2% apoptosis, and analogue 3e induced 10.6 to 19.5% apoptosis compared to 4.7% in control cells (FIG. 6A).

H1299 cancer cells = assay: Apoptosis assay; assay type: cell-based, human; details: 48 h
Description: [Worded in the source for another cell line; used here, by the source, with some conditions changed.] as §2

[4] = Acute toxicity, fed orally for two weeks; assay type: in vivo; details: Fisetin 50 mg/kg, 3c 25 and 50 mg/kg body weight
Method: Fisetin analogue 3c was used to assess the potential toxicity of these analogues in a pre-clinical model. To test the acute toxicity, Fisetin (50 mg/kg body weight), analogue 3c (25 mg/kg and 50 mg/kg body weight), and vehicle control (5% DMSO, 45% PEG-300 and 50% saline) was fed orally for two weeks. Abnormal clinical signs such as decreased motor activity, sensory reflection, body weight, food intake, and water intake were monitored during the treatment period. An increase in body weight was observed among all groups throughout the treatment period (FIG. 7A). […] This variation could be due to consistent frequency of dosage.

[5] = test system: lipid peroxidation (MDA formation); assay: Hepatotoxicity: lipid peroxidation assay on microsomal liver fraction (TBARS); assay type: in vivo, swiss albino mice; details: microsomal liver fraction of treated mice
Method: (§3) Hepatotoxicity is considered to be one of the major challenges for drug development schemes. The liver is the primary organ for the metabolism or biotransformation of a given drug. To assess the hepatotoxicity of these compounds, the effects of Fisetin and analogue 3c on various hepatic enzymes was assessed.
(§4) A lipid peroxidation assay was performed on microsomal liver fraction and determined in terms of TBARS formation. […] The modulatory effects of Fisetin and analogue 3c were determined on the specific activities of cytochrome b5 reductase (Cytb5R) and cytochrome P450 reductase (CytP450R), phase I enzyme of xenobiotic metabolism. Fisetin and analogue 3c caused reduction in the specific activity of cytochrome b5 reductase. Fisetin decreased Cytb5R specific activity by 66% whereas analogue 3c (50 mg/kg) caused a 36% reduction in specific activity (FIG. 7F). An increase in specific activity of CytP450R by Fisetin and analogue 3c was observed. Fisetin and analogue 3c (50 mg/kg) increased the specific activity by 15% and 13%, respectively (FIG. 7G). Next, the specific activities of phase II enzymes, glutathione S-transferase (GST) and reduced glutathione (GSH) were measured. […] Fisetin and analogue 3c (50 mg/kg) caused a decrease in specific activity of GSH by 34% and 7%, respectively (FIG. 7I). […] These analogues are therefore likely to be effective and safe phytochemicals.

SOD = assay: Hepatotoxicity: specific activity of SOD; assay type: in vivo, swiss albino mice; details: liver of treated mice
Method: as §3, §4

[6] = test system: B(a)P-induced lung carcinogenesis; assay: B(a)P-induced lung carcinogenesis, Initiation and Promotion Protocols; assay type: in vivo, Swiss albino mice
Description: To assess whether Fisetin and its 4-bromo-Fisetin analogue (Fisetin analogue 3c) have anticarcinogenesis activity and if any toxicity in terms of water and food consumption, and body weight, Benzo[a]pyrene [B(a)P] induced lung carcinogenesis in Swiss albino mice were employed in the study. Along with the antitumor activity of the agents, the body weight, food and water intake in different treatment groups were monitored on regular intervals and analysed.
There were six different treatment groups in the study including, (1) control, (2) B(a)P, (3) Fisetin+B(a)P, (4) Fisetin analogue 3c+B(a)P, (5) B(a)P+Fisetin and (6) B(a)P+Fisetin analogue 3c.
Groups 3 and 4 represent the Initiation Protocol (agents treatment started 1 week before carcinogen treatment and continued 1 week after the last dose of the carcinogen). Groups 5 and 6 represent the Promotion Protocol (agents treatment started after 3 weeks of the carcinogen treatment). The B(a)P was given orally twice a week for 4 weeks at 50 mg/kg body weight dose, whereas Fisetin and Fisetin analogue (3c) were administered orally at 25 mg/kg body weight thrice weekly (see FIG. 9).

Compound: O=c1c(O)c(-c2ccc(Br)cc2)oc2cc(O)ccc12 [analogue 3c, 4′-Bromo-3,7-dihydroxyflavone]
- cytotoxicity, in words ([1]; A549, MTT, 48 h): particularly active
- activity against lung cancer cell lines compared with the parent Fisetin ([1]; A549 and/or H1299): substantially more active
- pIC50 (A549 cells [2]): 4.92
- pIC50 (H1299 lung cancer cells): 5.27
- cleaved caspase-3 (A549 cells [3]): IC50 concentration of analogue 3c also increased cleaved caspase-3 to a significant amount; also recorded: higher concentration of analogue 3c and both the concentrations of analogue 3e increased the cleaved caspase-3 marginally
- expression of p21 (A549 cells [3]): increased the p21 expression significantly at higher concentration
- expression of phospho Cdc-2 (A549 cells [3]): IC50 concentration decreased the expression to some extent; also recorded: the higher concentrations decreased the phospho-Cdc-2 expression significantly
- expression of phospho-EGFR (A549 cells [3]): minimally affected except for higher concentration of analogue 3c
- expression of phospho-Erk1/2 (A549 cells [3]): decreased the expression of phospho-Erk1/2 significantly at both the concentrations
- expression of pro-apoptotic protein Bax (A549 cells [3]): increased the expression of Bax with much higher potential
- total Stat-3 expression (A549 cells [3]): not affected
- total form of Akt (A549 cells [3]): slightly downregulated
- total form of Erk1/2 (A549 cells [3]): not affected except for 3c in the higher concentration
- apoptosis (A549; IC50 concentration): 13.4%
- apoptosis (A549; higher concentration 20 μM): 17.2%
- apoptosis (H1299 cancer cells; IC50 concentration): 13.4%
- apoptosis (H1299 cancer cells; higher concentration 10 μM): 17.2%
- toxicity in mice, in words [4]: well tolerated in animal models; also recorded: does not show toxicity; also recorded: did not cause toxicity
- MDA formation (TBARS) [5]: No significant change
- specific activity of SOD (SOD): moderately induced
- systemic toxicity during long-term application ([6]; 25 mg/kg orally thrice weekly): did not show any systemic toxicity
- tumorigenic features in lung histology (nucleus size, cytoplasmic content, alveoli) ([6]; 25 mg/kg orally thrice weekly): reversal of the tumorigenic features
- tumor incidence, histopathology of H&E stained serial sections ([6]; compared to the carcinogen treated group): less
- decrease of area or size of lesions ([6]; initiation group): approximately 50%
- efficacy in inhibiting B(a)P induced lung carcinogenesis, in words ([6]; mouse model): efficacious; also recorded: more effective in reducing the number as well as the size of the lung tumor lesions as compared to the parent compound Fisetin
- decrease of area or size of lesions ([6]; promotion group): more than 50%
- reduction of total number of lesions ([6]; tumor initiation group): approximately 50%
- surface tumor lesion incidence, gross observation of lung ([6]; tumor initiation phase, B(a)P-only group 100% incidence): only one mouse showed surface tumor lesion out of five
- tumor lesions per mouse and total number of lesions per group, in words ([6]; versus B(a)P group): strongly reduced
